Results taken from patent US20170275344A1, “POLYPEPTIDES AND USES THEREOF AS A DRUG FOR TREATMENT OF AUTOIMMUNE DISORDERS” (Compugen Ltd., priority 2014, published 2017).
Several values for one entry are separate records, joined by “and”; a condition that tells them apart may be missing. Equal entries are not always repeated.

What was measured:
[1] = test system: healthy human skin transplanted onto beige-SCID mice; assay: Humanized psoriasis model: healthy human skin xenotransplants on beige-SCID mice injected with psoriatic patients' PBMCs; assay type: in vivo, mouse; settings: for Healthy Skin (number of grafts) / Partial Psoriasiform With Tendency Towards Healthy skin (number of grafts) / Psoriasiform Skin (number of affected grafts, histological evaluation) / Total No. of Healthy Grafts (%): 28 days after start of treatment; for Epidermal thickness of grafts, Mean: mean of 9-10 mice, PBS mean 682; for proliferation index (% Ki-67 positive cells) in the xenografted skin: vs vehicle treated group
Description: In this model, psoriasis is induced in xenotransplants of healthy human skin transplanted onto beige severe combined immunodeficiency (SCID) mice followed by intradermal (i.d.) injection of IL-2 enriched Peripheral Blood Mononuclear Cells (PBMCs) isolated from blood of psoriasis patients (Nickoloff, 1995; Wrone-Smith, 1996 Gilhar et al., 2002, 2006, 2011). The activity of these compounds was compared to that of Enbrel, a TNF inhibitor which is an approved biological drug for treatment of psoriasis. As a control for model robustness, we used dexamethasone, a steroid with suppressive effects on inflammatory cytokines and chemokines such as TNF-alpha and interferon-gamma which cause severe psoriasis. All treatments were administered intradermally, except for dexamethasone which was given topically.
Study Protocol: A) Healthy human skin pieces with a width of 0.4 mm and surface area of 1.5×1.5 cm were provided from residual skin of routine plastic surgery procedures from the Plastic Surgery Department of the Rambam Medical Center, Israel. In addition, 20 mL blood samples were taken from psoriatic patients. B) Seventy (70) beige-severe combined immunodeficient mice (SCID) (weight˜20-25 g) were included in this study. Normal healthy human donor skin was transplanted onto the beige-SCID mice as previously described (Nickoloff et al., 1995; Wrone-Smith, 1996; Gilhar et al., 2002, 2006, 2011; Kalish et al., 2009) and the mice were divided into 7 groups. C) Peripheral Blood Mononuclear Cells (PBMCs) isolated from psoriatic patients' blood were cultured in the presence of IL-2 [Prospec, 100 U/mL of RPMI 1640 media, 10% human AB serum (Sigma, St. Louis, Mo.), 1% glutamine, 1% antibiotics (media components; Biological Industries, Kibbutz Beit Haemeck, Israel)] for 14 days, as previously described (Gilhar et al, 2002). D) Four weeks following engraftment, each mouse was injected intra-dermally (i.d.) into the grafted skin lesion, with 1×10^7 activated allogeneic enriched PBMCs from psoriatic patients (FIG. 20). Cells from different psoriasis patients were equally distributed between treatment groups so that each patient is represented in each treatment group. E) On the day of PBMCs injection into the skin grafts, mice were divided randomly into treatment groups (n=9-10 mice per group) and administration of all drugs started (FIG. 20). All tested compounds including the vehicle were given intradermally (intralesional), three times a week, except for dexamethasone which was given topically for 14 consecutive days (Table 3).
F) Twenty eight days after starting the injections and treatment, skin was harvested (FIG. 20). Grafts were analyzed for the following psoriatic parameters by histology: epidermal thickening (acanthosis), suprapapillary epidermal thinning (papillomatosis), hyperkeratosis, parakeratosis, orthokeratosis, agranulosis-hypogranulosis, appearance of neutrophils in the upper spinous layer or in the corneal cell layer—Munro microabscess, regular elongation of rete ridges, angiogenesis, edema and dilated tortuous blood vessels in the dermal papilla and mononuclear cell infiltrate in the papillary dermis. Epidermal thickness was measured as detailed below, and HLA-DR, ICAM-1, Ki-67 and immune infiltrates (anti-CD3 stain) were evaluated by immunohistochemistry (IHC).
The entire skin graft was excised and placed in 10% formal saline overnight. Then, the specimens were place in 70% ethanol and were embedded according to the standard H&E protocol. Histological assessment of the skin grafts was performed by light microscopy and evaluated by two blinded observers [the second observer evaluated random slides (about 25% of all slides) to compare the data obtained by the first observer. […] Epidermal thickness was determined with an ocular micrometer at a minimum of 50 points along the epidermis selected to represent points of maximal and minimal thickness.
Representative grafts were allocated for IHC analysis. […]

[2] = test system: co-cultures of TcK and macrophages; assay: TcK : macrophage co-culture, cytokine secretion; assay type: cell-based, human
Description: • Purified CD4+ cells (2×10^6 cells/ml) are activated for 6 days in complete medium containing IL-15 (100 ng/ml), IL-6 (100 ng/ml) and TNFα (25 ng/ml).
After 6 days in culture, T cells are washed 3 times in complete medium and counted
TcKs are added to macrophage culture following removal of existing culture media at […] (5×10^4 cells/well/CD4+ T cells plus 2×10^5 cells/well CD14^+ Macrophages). C1ORF32 ECD-Fc (SEQ ID NO:43) or Control IgG are added at 1, 3, 10, 30 μg/ml. For additional controls co-cultures are added with vehicle or with medium only (Wennink et al., 2012).
After 24 hrs of culture, cytokines (IL-10, IFN-α, IL-6, IL-12, CCL5, IL-13, IL-15, IL-17, CCL3, GM-CSF, IFNγ, TNFα, IL-1RA, IL-7, IL-1B, eotaxin, IL-2 IL-4 and IL-2R) are analyzed using ELISA and/or Luminex
Co-culture of TcK with autologeuos ex-vivo differentiated macrophages mimics one of the crucial pathways mediating synovial macrophage activation in RA thus serving as a translational tool for evaluating the therapeutic potential of drug candidates. Therefore the effect of C1ORF32 ECD-Fc (SEQ ID NO:43) was tested on the secretion of a range of pro-inflammatory and anti-inflammatory cytokines in such co-cultures. Two studies were carried out, one in which buffy coats from healthy volunteers was used and another study in which the responses of RA patients blood cells responses were compared to that of healthy voluntiers in which blood was used rather than buffy coats.

PBMCs from MS patients = assay: MS patients' PBMCs: proliferation and cytokine secretion; assay type: cell-based, human
Description: PBMCs were taken from eight MS patients with diagnosed relapsing-remitting disease who have experienced a relapse 1-2 days prior to blood drawing.
PBMCs were plated in a flat-bottom 96-well plate at 1e6 cells/well. The cells were cultured in the presence of anti-CD3 (0.5 ug/ml), MS-specific peptide MBP85-96 (10 ug/ml), or tetanus toxoid peptide TT830-843 (10 ug/ml). C1ORF32 ECD-Fc (SEQ ID NO: 43) or Control Ig were added to the cuture at the indicated concentrations. Two replicate plates were set to study for the effect of C1ORF32 ECD-Fc (SEQ ID NO: 43) on proliferation and on pro-inflammatory and anti-inflammatory cytokines secretion. To test for proliferation, the cultures were pulsed on day +1 of culture with 1 uCi of tritiated thymidine and then harvested 3 days later on day +4 of culture. For cytokine analysis, super natantes from a replicate cultures were collected on day +4 of culture and tested using Millipore multiplex assay.

[3] = healthy volunteers, 24 hrs co-culture
[4] = PBMCs activated ex-vivo with MBP85-96

Compound | Healthy Skin (number of grafts) [1] | Psoriasiform Skin (number of affected grafts, histological evaluation) [1] | Total No. of Healthy Grafts (%) [1] | Epidermal thickness of graft ([1]; Source of graft (Patient) A) | Epidermal thickness of graft ([1]; Source of graft (Patient) B) | Epidermal thickness of graft ([1]; Source of graft (Patient) C) | Epidermal thickness of graft ([1]; Source of graft (Patient) D) | Epidermal thickness of graft ([1]; Source of graft (Patient) E) | Epidermal thickness of graft ([1]; Source of graft (Patient) G1) | Epidermal thickness of graft ([1]; Source of graft (Patient) H) | Epidermal thickness of graft ([1]; Source of graft (Patient) K) | Epidermal thickness of grafts, Mean [1] | other results
C[C@@H]1C[C@H]2[C@@H]3CCC4=CC(=O)C=C[C@]4(C)[C@@]3(F)[C@@H](O)C[C@]2(C)[C@@]1(O)C(=O)CO [dexamethasone] | 7/10 | 2 and 2/10 | 70% | 359 μm | 596 μm | 183 μm | 377 μm | 391 μm | 266 μm | 262 μm | 289 μm | 315 μm | Partial Psoriasiform With Tendency Towards Healthy skin (number of grafts) [1]: 1; Partial Psoriasiform With Tendency Towards Healthy skin (number of grafts) ([1]; listed as Dexa): 1/10; Psoriasiform Skin (number of affected grafts, histological evaluation) ([1]; listed as Dexa): 2/10; Epidermal thickness of graft ([1]; Source of graft (Patient)): 204 μm; Epidermal thickness of graft ([1]; Source of graft (Patient) P): 232 μm
C1ORF32 ECD-Fc (SEQ ID NO: 43): fusion protein of human C1ORF32 ECD fused to human immunoglobulin Fc (human-human fusion protein) | 5/9 | 4/9 | 55.5% and 55% | 904 μm | 397 μm | 603 μm | 441 μm | 335 μm | 598 μm | 253 μm | 268 μm | 508 μm | expression of HLA-DR, ICAM-1 and Ki-67 (IHC) ([1]; IHC of representative grafts): decreased expression; infiltration of T cells (CD3 positive cells) ([1]; IHC, vs PBS treated group): decreased infiltration of T cells; proliferation index (% Ki-67 positive cells) in the xenografted skin ([1]; IHC): trend towards decrease in proliferation index; proliferation index (% Ki-67 positive cells) in the xenografted skin ([1]; IHC, listed as C1ORF ECD-Fc (SEQ ID NO:43)): most pronounced reduction; Epidermal thickness of graft ([1]; Source of graft (Patient) G2): 775 μm; epidermal thickness compared with the vehicle-treated group ([1]; one-tailed t-Test, listed as C1ORF ECD-Fc (SEQ ID NO:43)): significant reduction in epidermal thickness; TNFa secretion ([2]; RA patients' (n=2) and healthy volunteers blood (n=1) samples): marked inhibition; IL-10, IL-15, IFNa, IL-7 secretion levels [2, 3]: No effect; secretion of IFNg, IL-1RA, IL-17, IL-12, IL-13, IL-6 and IL-2R [2, 3]: to a lesser extent also downregulated; secretion of TNFa, CCL5, CCL3, GM-CSF, and IL-5 [2, 3]: inhibited; IFNg, IL-17, TNFa secretion (PBMCs from MS patients; [4]): inhibition; IL-4, IL-10, TGFβ and IL-6 secretion (PBMCs from MS patients; [4]): increase; cell proliferation (PBMCs from MS patients; [4]): inhibition of cells proliferation; proliferation, or secretion of IFNg, IL-17, and TNFa (PBMCs from MS patients; absence of activation): no effect; IL-10, IL-4, TGFβ and IL-6 (PBMCs from MS patients; absence of activation, in some of the donors): elevation
